This is an account of results in US20260250290A1 (BRISTOL-MYERS SQUIBB COMPANY, priority 2023, published 2026).

Counter-ions that a name gives are not always drawn.

The target of this test is T1, full length SGK1 (Homo sapiens, UniProt O00141).
T1 construct: 125 μM full length SGK1 (Life Technologies Part #PR7358A); purchased Life Technologies PR7358A
T1 sequence (O00141 1-431): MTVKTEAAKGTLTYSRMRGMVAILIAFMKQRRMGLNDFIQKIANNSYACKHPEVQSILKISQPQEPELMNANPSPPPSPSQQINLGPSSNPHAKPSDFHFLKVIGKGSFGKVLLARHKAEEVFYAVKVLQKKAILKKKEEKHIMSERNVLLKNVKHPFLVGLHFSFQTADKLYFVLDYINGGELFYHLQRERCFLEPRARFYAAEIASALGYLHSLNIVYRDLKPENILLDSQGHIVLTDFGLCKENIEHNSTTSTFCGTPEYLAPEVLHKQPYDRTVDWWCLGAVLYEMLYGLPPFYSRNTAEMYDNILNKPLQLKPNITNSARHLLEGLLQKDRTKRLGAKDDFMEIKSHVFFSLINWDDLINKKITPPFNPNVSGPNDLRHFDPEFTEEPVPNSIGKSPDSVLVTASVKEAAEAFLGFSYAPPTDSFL
Description: SGK1 inhibition Assay A (Caliper LabChip electrophoretic separation of fluorescent peptide substrate and phosphorylated product). It is filed as biochemical. As to conditions: Assay A; 20 μM ATP, 40 min incubation; read-out: SGK1 IC50.
Usually IC50 stands for the point on the concentration scale where inhibition reaches its midpoint. As for `CN(C)CCOc1cc(Cl)sc1C(=O)N[C@@H]1CCCN(c2cc(-c3ccc(C#N)nc3)n3ncnc(N)c23)C1` [Example 278, (R)-N-(1-(4-amino-7-(6-cyanopyridin-3-yl)pyrrolo[2,1-f][1,2,4]triazin-5-yl)piperidin-3-yl)-5-chloro-3-(2-(dimethylamino)ethoxy) thiophene-2-carboxamide], the IC50 was found to be 1 nM. `COc1cc(-c2cc(N3CCC[C@@H](NC(=O)c4ccc(Cl)s4)C3)c3c(N)ncnn23)ccc1C(N)=O` [Example 207, (R)-N-(1-(4-amino-7-(4-carbamoyl-3-methoxyphenyl)pyrrolo [2,1-f][1,2,4]triazin-5-yl)piperidin-3-yl)-5-chlorothiophene-2-carboxamide]: the IC50 was 4 nM.

Turning to `CS(=O)(=O)c1ccc(-c2cc(N3CCC[C@@H](NC(=O)c4cc(Cl)no4)C3)c3c(N)ncnn23)cc1` [Example 74, (R)-N-(1-(4-amino-7-(4-(methylsulfonyl)phenyl)pyrrolo[2,1-f][1,2,4]triazin-5-yl)piperidin-3-yl)-3-chloroisoxazole-5-carboxamide, TFA], the IC50 stood at 25 nM. For `CC1CC(Oc2cc(Cl)sc2C(=O)NC2CCCN(c3cc(-c4cncnc4)n4ncnc(N)c34)C2)CCN1` (single isomer, unassigned) [Example 626] the value was 8 nM; for `CC(=O)N1CC=C(c2cc(N3CCC[C@@H](NC(=O)c4cccc(N5CC[C@H](O)C5)n4)C3)c3c(N)ncnn23)C1` [Example 779, N-((R)-1-(7-(1-acetyl-2,5-dihydro-1H-pyrrol-3-yl)-4-aminopyrrolo[2,1-f][1,2,4]triazin-5-yl)piperidin-3-yl)-6-((S)-3-hydroxypyrrolidin-1-yl)picolinamide], 33 nM. As for `COC(=O)N1CC=C(c2cc(N3CCC[C@@H](NC(=O)c4sc5ccccc5c4OC4CCN(C(=O)OC(C)(C)C)CC4)C3)c3c(N)ncnn23)C1` [Example 651, ter-butyl (R)-4-((2-((1-(4-amino-7-(1-(methoxycarbonyl)-2,5-dihydro-1H-pyrrol-3-yl)pyrrolo[2,1-f][1,2,4]triazin-5-yl)piperidin-3-yl)carbamoyl)benzo[b]thiophen-3-yl)oxy)piperidine-1-carboxylate], the figure is 100 nM; as for `CN(C)CCOc1cc(Cl)sc1C(=O)N[C@@H]1CCCN(c2cc(C3=CCN(S(C)(=O)=O)C3)n3ncnc(N)c23)C1` [Example 141, (R)—N-(1-(4-amino-7-(1-(methylsulfonyl)-2,5-dihydro-1H-pyrrol-3-yl)pyrrolo[2,1-f][1,2,4]triazin-5-yl)piperidin-3-yl)-5-chloro-3-(2-(dimethylamino)ethoxy)thiophene-2-carboxamide, TFA], 3 nM; as for `Cc1cc(C(=O)N[C@@H]2CCCN(c3cc(-c4ccc(S(C)(=O)=O)cc4)n4ncnc(N)c34)C2)on1` [Example 63, (R)-N-(1-(4-amino-7-(4-(methylsulfonyl)phenyl)pyrrolo[2,1-f][1,2,4]triazin-5-yl)piperidin-3-yl)-3-methylisoxazole-5-carboxamide, TFA], 105 nM. With `COC(=O)NCCOc1cc(C(F)F)sc1C(=O)N[C@@H]1CCCN(c2cc(-c3cncnc3)n3ncnc(N)c23)C1` [Example 429, methyl (R)-(2-((2-((1-(4-amino-7-(pyrimidin-5-yl)pyrrolo[2,1-f][1,2,4]triazin-5-yl)piperidin-3-yl)carbamoyl)-5-(difluoromethyl)thiophen-3-yl)oxy)ethyl)carbamate], the IC50 came out at 60 nM.

As for `CC(=O)N1CC=C(c2cc(N3CCC[C@@H](NC(=O)c4ccc(C#N)s4)C3)c3c(N)ncnn23)C1` [Example 714, (R)-N-(1-(7-(1-acetyl-2,5-dihydro-1H-pyrrol-3-yl)-4-aminopyrrolo[2,1-f][1,2,4]triazin-5-yl)piperidin-3-yl)-5-cyanothiophone-2-carboxamide], the IC50 was 7 nM.

Regarding `CN1CCN(c2cccc(C(=O)N[C@@H]3CCCN(c4cc(-c5ccc(=O)n(C)c5)n5ncnc(N)c45)C3)n2)CC1` [Example 797, (R)-N-(1-(4-amino-7-(1-methyl-6-oxo-1,6-dihydropyridin-3-yl)pyrrolo[2,1-f][1,2,4]triazin-5-yl)piperidin-3-yl)-6-(4-methylpiperazin-1-yl)picolinamide], the IC50 came to 13 nM. For `COC(=O)N1CC=C(c2cc(N3CCC[C@@H](NC(=O)c4sc(C(F)F)cc4OCCN4CCN(C)CC4)C3)c3c(N)ncnn23)C1` [Example 334, Methyl (R)-3-(4-amino-5-(3-(5-(difluoromethyl)-3-(2-(4-methylpiperazin-1-yl)ethoxy)thiophene-2-carboxamido)piperidin-1-yl)pyrrolo[2,1-f][1,2,4]triazin-7-yl)-2,5-dihydro-1H-pyrrole-1-carboxylate] the value was 9 nM; for `NCCOc1cc(C(F)F)sc1C(=O)N[C@@H]1CCCN(c2cc(-c3cncnc3)n3ncnc(N)c23)C1` [Example 325, (R)-N-(1-(4-amino-7-(pyrimidin-5-yl)pyrrolo[2,1-f][1,2,4]triazin-5-yl)piperidin-3-yl)-3-(2-aminoethoxy)-5-(difluoromethyl)thiophene-2-carboxamide], 15 nM. For `CC(=O)N1CC=C(c2cc(N3CCC[C@@H](NC(=O)c4sc(Cl)cc4OCCN(C)C)C3)c3c(N)ncnn23)CC1` [Example 180, (R)—N-(1-(7-(1-acetyl-1,2,3,6-tetrahydropyridin-4-yl)-4-aminopyrrolo[2,1-f][1,2,4]triazin-5-yl)piperidin-3-yl)-5-chloro-3-(2-(dimethylamino)ethoxy)thiophene-2-carboxamide 2 TFA] the value was 47 nM; for `COc1c(-c2cc(N3CCC[C@@H](NC(=O)c4ccc(Cl)s4)C3)c3c(N)ncnn23)ccnc1F` [Example 227], 18 nM.

On to `Nc1ncnn2c(-c3ccnc(F)c3)cc(N3CCC[C@@H](NC(=O)c4cc(Cl)c(Cl)s4)C3)c12` [Example 150, (R)-N-(1-(4-amino-7-(2-fluoropyridin-4-yl)pyrrolo[2,1-f][1,2,4]triazin-5-yl)piperidin-3-yl)-4,5-dichlorothiophene-2-carboxamide], for which the IC50 stood at 5 nM. For `COCCNc1cccc(C(=O)N[C@@H]2CCCN(c3cc(C4=CCN(C(C)=O)C4)n4ncnc(N)c34)C2)n1` [Example 765, (R)-N-(1-(7-(1-acetyl-2,5-dihydro-1H-pyrrol-3-yl)-4-aminopyrrolo[2,1-f][1,2,4]triazin-5-yl)piperidin-3-yl)-6-((2-methoxyethyl)amino)picolinamide], the IC50 is 200 nM. As for `CC(=O)N1CC=C(c2cc(N3CCC[C@@H](NC(=O)c4nc(F)ccc4N4CCN(C)CC4)C3)c3c(N)ncnn23)C1` [Example 745, (R)-N-(1-(7-(1-acetyl-2,5-dihydro-1H-pyrrol-3-yl)-4-aminopyrrolo[2,1-f][1,2,4]triazin-5-yl)piperidin-3-yl)-6-fluoro-3-(4-methylpiperazin-1-yl)picolinamide], the figure is 366 nM.

Regarding `COC(=O)N1CC=C(c2cc(N3CCC[C@@H](NC(=O)c4sc(Cl)cc4OCCN(C)C)C3)c3c(N)ncnn23)C1` [Example 173, methyl (R)-3-(4-amino-5-(3-(5-chloro-3-(2-(dimethylamino)ethoxy)thiophene-2-carboxamido)piperidin-1-yl)pyrrolo[2,1-f][1,2,4]triazin-7-yl)-2,5-dihydro-1H-pyrrole-1-carboxylate, 2 TFA], the IC50 is 4 nM. As for `CCn1cc(-c2cc(N3CCC[C@@H](NC(=O)c4ccc(Cl)s4)C3)c3c(N)ncnn23)ccc1=O` [Example 532, (R)-N-(1-(4-amino-7-(1-ethyl-6-oxo-1,6-dihydropyridin-3-yl)pyrrolo[2,1-f][1,2,4]triazin-5-yl)piperidin-3-yl)-5-chlorothiophene-2-carboxamide], the figure is 6 nM.

Consider `CS(=O)(=O)c1ccc(-c2cc(N3CCC[C@@H](NC(=O)c4ccnc(N)c4)C3)c3c(N)ncnn23)cc1` [Example 39, (R)-2-amino-N-(1-(4-amino-7-(4-(methylsulfonyl)phenyl)pyrrolo [2,1-f][1,2,4]triazin-5-yl)piperidin-3-yl)isonicotinamide], for which the IC50 was 48 nM. As for `CS(=O)(=O)c1ccc(-c2cc(N3CCC[C@@H](NC(=O)Cc4ccccc4)C3)c3c(N)ncnn23)cc1` [Example 14, (R)-N-(1-(4-amino-7-(4-(methylsulfonyl)phenyl)pyrrolo[2,1-f][1,2,4]triazin-5-yl)piperidin-3-yl)-2-phenylacetamide, TFA], the figure is 941 nM. As for `CC(=O)N1CC=C(c2cc(N3CCC[C@@H](NC(=O)c4ccn(C(F)F)n4)C3)c3c(N)ncnn23)C1` [Example 737], the figure is 10 nM.

Consider `CC(=O)N1CC=C(c2cc(N3CCC[C@@H](NC(=O)c4cccc(N(C)C)n4)C3)c3c(N)ncnn23)C1` [Example 725, (R)-N-(1-(7-(1-acetyl-2,5-dihydro-1H-pyrrol-3-yl)-4-aminopyrrolo[2,1-f][1,2,4]triazin-5-yl)piperidin-3-yl)-6-(dimethylamino) picolinamide], for which the IC50 came out at 26 nM. For `COC(=O)N1CC=C(c2cc(N3CCC[C@@H](NC(=O)c4sc(Cl)cc4OCCN4CCC(F)(F)C4)C3)c3c(N)ncnn23)C1` [Example 285, Methyl (R)-3-(4-amino-5-(3-(5-chloro-3-(2-(3,3-difluoropyrrolidin-1-yl)ethoxy)thiophene-2-carboxamido)piperidin-1-yl)pyrrolo[2,1-f][1,2,4]triazin-7-yl)-2,5-dihydro-1H-pyrrole-1-carboxylate] the value was 17 nM.
